Consider 20 compounds from US20250002475A1 (EPICS THERAPEUTICS, priority 2023, published 2025).

Assay [1] addresses T1, recombinant METTL3/METTL14 complex (Homo sapiens, UniProt Q86U44).
T1 construct: purchased Active Motif 311970; host or cells: Sf9 cells
The experiment in a line: METTL3/14 Scintillation Proximity Assay (SPA), RNA methyltransferase activity. It is filed as biochemical. Particulars: 5.31 nM METTL3/14 complex, 250 nM RNA substrate, 1 μM 3H-SAM, 90 min; for compounds marked * best of the two separated forms. In general terms: In a scintillation proximity assay essentially only radioactivity close to the scintillant gives light.

The next assay deals with Caov-3 cells. The experiment in a line: Caov-3 cellular viability assay (ATP-Lite, 72 h). The format is cell-based. Particulars: Homo sapiens, ATP-Lite luminescence, % viability relative to DMSO. The procedure:
Caov-3 cell line was purchased from ATCC (ATCC® HTB-75™). Cells were isolated from the ovary of a ovarian cancer patient.
Caov-3 cells are cultured in DMEM (ATCC 30-2002) containing 10% heat-inactivated and 0.22 μm filtered FBS (Gibco 10270-106). The cells are seeded at 2.5E+4cell/cm^2 within the recommended subcultivation ratio of 1:3 to 1:6, as stated on the certificate of analysis issues by the provider of the cells.
(§1) Cellular viability assay: Caov-3 cells were plated (50 μL) in 96-well cell culture microplates (PS, F-Bottom black, Cellstar, Greiner 655086) at final concentration of 10000 cells/well. The compounds of the invention were dissolved in DMSO, and a titration curve was generated at 1000× final concentration. Compounds were then diluted 500× in tissue culture medium (RPMI-1640, 10% FBS). Then 50 μl of test compound were added to Caov-3 cells in a final DMSO concentration of 0.1%, final volume 100 μl. A gas permeable sealing membrane was applied to the plate to prevent evaporation (Breathe-Easy sealing membrane, Sigma Z380059-1PK) and cells were incubated for 72 h at 37° C., 5% CO2, 80% RH. After 72 h of treatment, the plates were taken out of the incubator and left for a few minutes at room temperature. 100 μl of the reconstituted reagent ATP-Lite One Step (Perkin Elmer, 6016739) were added to each well. The plates were shaken for 2 min at 700 rpm and placed in the dark for 10 minutes at room temperature before measurement of luminescence intensity with Envision instrument. The raw data were expressed in RLU. Results were expressed in % of viability relative to DMSO control and an IC50 was calculated based on the concentration-response profile of individual compounds.

The subject of another assay is Kasumi-1 cells. The experiment in a line: Kasumi-1 cellular viability assay (ATP-Lite, 72 h). It is filed as cell-based. The settings on record: Homo sapiens, ATP-Lite luminescence, % viability relative to DMSO. The protocol:
Kasumi-1 cell line was purchased from ATCC (ATCC® CRL2724™). Cells were isolated from the peripheral blood of a child with acute myeloid leukemia (AML FAB M2) (in 2nd relapse after bone marrow transplantation) in 1989. Most cells are round. Kasumi-1 cells are observed to grow individually or in small clumps in suspension.
Kasumi-1 cells are cultured in RPMI-1640 (Gibco A10491-01) containing 10% heat-inactivated and 0.22 μm filtered FBS (Gibco 10270-106) at a density of 3E+5 and 3E+6 viable cell/mL following the certificate of analysis.
as §1, with “assay: Kasumi-1” for “assay: Caov-3”, “of 15000” for “of 10000”, “to Kasumi-1” for “to Caov-3”, “After 72h” for “After 72 h”, “6016739) was” for “6016739) were”

T1 sequence (Q86U44 whole entry): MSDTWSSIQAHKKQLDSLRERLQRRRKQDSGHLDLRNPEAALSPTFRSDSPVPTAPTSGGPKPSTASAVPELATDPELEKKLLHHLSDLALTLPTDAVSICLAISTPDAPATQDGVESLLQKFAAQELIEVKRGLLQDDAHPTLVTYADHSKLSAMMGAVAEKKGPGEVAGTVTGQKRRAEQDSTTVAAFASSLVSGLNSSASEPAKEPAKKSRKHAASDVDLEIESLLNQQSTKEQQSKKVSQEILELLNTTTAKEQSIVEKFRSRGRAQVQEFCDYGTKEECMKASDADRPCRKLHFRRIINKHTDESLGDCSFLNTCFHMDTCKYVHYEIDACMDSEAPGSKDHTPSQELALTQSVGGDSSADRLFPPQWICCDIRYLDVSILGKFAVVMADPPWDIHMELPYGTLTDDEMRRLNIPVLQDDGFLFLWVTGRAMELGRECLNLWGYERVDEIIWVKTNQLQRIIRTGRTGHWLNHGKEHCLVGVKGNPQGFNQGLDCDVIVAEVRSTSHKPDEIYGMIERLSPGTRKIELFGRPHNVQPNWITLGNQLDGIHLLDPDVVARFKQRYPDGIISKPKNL
T1 sequence (Q9HCE5 whole entry partner): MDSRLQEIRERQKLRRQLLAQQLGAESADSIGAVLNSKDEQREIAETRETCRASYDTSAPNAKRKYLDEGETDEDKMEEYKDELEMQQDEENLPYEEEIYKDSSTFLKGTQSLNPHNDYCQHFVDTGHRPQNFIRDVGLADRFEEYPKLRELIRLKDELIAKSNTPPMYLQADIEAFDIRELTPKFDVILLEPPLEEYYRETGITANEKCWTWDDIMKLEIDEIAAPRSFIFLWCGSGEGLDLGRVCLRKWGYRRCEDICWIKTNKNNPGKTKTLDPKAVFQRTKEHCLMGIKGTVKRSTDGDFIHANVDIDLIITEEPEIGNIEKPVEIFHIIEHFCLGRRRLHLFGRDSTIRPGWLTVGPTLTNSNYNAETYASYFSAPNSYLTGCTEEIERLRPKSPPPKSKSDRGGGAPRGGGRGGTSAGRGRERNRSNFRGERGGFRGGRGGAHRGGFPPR

What is called IC50 is the concentration that gives 50% inhibition. Turning to `CC(n1cc(-c2cncc(N3CC[C@H](C)C3)n2)nn1)n1ccc(N2CCC[C@@H](NCC3CC3)C2)cc1=O` (single isomer, unassigned) [Compound 240], the IC50 is not above 50 nM in assay [1], not above 500 nM in the assay with Caov-3 cells and not above 500 nM in the assay with Kasumi-1 cells.

For `O=C(Nc1cncc(N2CCCC2)n1)C1(c2ccc(N3CCC[C@@H](NCC4CC4)C3)nc2)COC1` [Compound 324, (R)-3-(6-(3-((cyclopropylmethyl)amino)piperidin-1-yl)pyridin-3-yl)-N-(6-(pyrrolidin-1-yl)pyrazin-2-yl)oxetane-3-carboxamide], the concentration for half-maximal inhibition (IC50) in assay [1] is not above 50 nM; in the assay on Caov-3 cells, not above 500 nM; in the assay on Kasumi-1 cells, not above 500 nM.

With `CC(n1cc(-c2cncc(N3CC4(CCC4)C3)c2)nn1)n1ccc(N2CCC[C@@H](NCC3CCC3)C2)cc1=O` (single isomer, unassigned) [Compound 193], the IC50 was not above 50 nM in assay [1], not above 500 nM in the assay on Caov-3 cells and not above 500 nM in the assay with Kasumi-1 cells.

Regarding `COc1cc(-c2nnn(C(C)n3ccc(N4CCC[C@@H](NCC5CCC5)C4)cc3=O)n2)c2cn[nH]c2c1` (single isomer, unassigned) [Compound 210], the IC50 in assay [1] was not above 50 nM; with Caov-3 cells, not above 500 nM; with Kasumi-1 cells, 500 to 5000 nM.

In the case of `CC1(C)CCN(c2cncc(-c3cn(C4(c5ccc(N6CCC[C@@H](NCC7CC7)C6)cn5)COC4)nn3)n2)C1` [Compound 214, (R)-N-(cyclopropylmethyl)-1-(6-(3-(4-(6-(3,3-dimethylpyrrolidin-1-yl)pyrazin-2-yl)-1H-1,2,3-triazol-1-yl)oxetan-3-yl)pyridin-3-yl)piperidin-3-amine], the figures for the IC50 (in assay [1]; in the assay with Caov-3 cells; in the assay on Kasumi-1 cells) were not above 50 nM, not above 500 nM and not above 500 nM, respectively.

Consider `CC(n1cc(-c2cncc(N3CC(F)(F)C3)c2)nn1)n1ccc(N2CCC[C@@H](NCC3CC3)C2)cc1=O` (stereo partly drawn) [Compound 197], for which the IC50 was not above 50 nM in assay [1], 500 to 5000 nM with Caov-3 cells and 500 to 5000 nM in the assay on Kasumi-1 cells.

In the case of `c1cc(C2(n3cc(-c4cncc(N5CC6(COC6)C5)n4)nn3)COC2)ncc1N1CCC[C@@H](NCC2CC2)C1` [Compound 221, (R)-1-(6-(3-(4-(6-(2-oxa-6-azaspiro[3.3]heptan-6-yl)pyrazin-2-yl)-1H-1,2,3-triazol-1-yl)oxetan-3-yl)pyridin-3-yl)-N-(cyclopropylmethyl)piperidin-3-amine], the IC50 in assay [1] is not above 50 nM; in the assay with Caov-3 cells, 500 to 5000 nM; in the assay with Kasumi-1 cells, 500 to 5000 nM.

Take `CC(c1ccc(N2CCC[C@@H](NCC3CCC3)C2)nn1)n1cc(-c2cncc(N3CC4CC4C3)n2)nn1` (single isomer, unassigned) [Compound 284]: the IC50 in assay [1] was not above 50 nM; in the assay with Caov-3 cells, not above 500 nM; in the assay with Kasumi-1 cells, not above 500 nM.

With `O=C(NCc1ccc(N2CCCC(NCC34CC(F)(C3)C4)C2)nn1)c1cc(=O)n2ccccc2n1` (stereo not drawn) [Compound 011, N-((6-(3-(((3-fluorobicyclo[1.1.1]pentan-1-yl)methyl)amino)piperidin-1-yl)pyridazin-3-yl)methyl)-4-oxo-4H-pyrido[1,2-a]pyrimidine-2-carboxamide], the concentration for half-maximal inhibition (IC50) in assay [1] was 50 to 500 nM; in the assay with Caov-3 cells it was more than 5000 nM; in the assay on Kasumi-1 cells it was more than 5000 nM.

`FC1(F)CC(CN[C@@H]2CCCN(c3ccc(C4(n5cc(-c6cncc(C7CC7)c6)nn5)COC4)nc3)C2)C1` [Compound 341, (R)-1-(6-(3-(4-(5-cyclopropylpyridin-3-yl)-1H-1,2,3-triazol-1-yl)oxetan-3-yl)pyridin-3-yl)-N-((3,3-difluorocyclobutyl)methyl)piperidin-3-amine]: the results for the IC50 (in assay [1]; in the assay on Caov-3 cells; in the assay on Kasumi-1 cells) were not above 50 nM, not above 500 nM and not above 500 nM, respectively.

Regarding `CC(n1cc(-c2cncc(N(C)C)n2)nn1)n1ccc(N2CCC[C@@H](NCC3CC3)C2)cc1=O` (single isomer, unassigned) [Compound 186], the IC50 in assay [1] was not above 50 nM; in the assay on Caov-3 cells it was not above 500 nM; in the assay with Kasumi-1 cells, not above 500 nM.

`CC(c1ccc(N2CCC[C@@H](NCC34CC(F)(C3)C4)C2)cn1)n1cc(-c2cncc(N3CCCC3)n2)nn1` (stereo partly drawn) [Compound 304, (3R)—N-((3-fluorobicyclo[1.1.1]pentan-1-yl)methyl)-1-(6-(1-(4-(6-(pyrrolidin-1-yl)pyrazin-2-yl)-1H-1,2,3-triazol-1-yl)ethyl)pyridin-3-yl)piperidin-3-amine]: the values for the IC50 (in assay [1]; in the assay on Caov-3 cells; with Kasumi-1 cells) were not above 50 nM, not above 500 nM and not above 500 nM, respectively.

On to `O=C(Nc1cc(=O)n2ccsc2n1)C1(c2ccc(N3CCC[C@@H](NCC4CCC4)C3)cn2)COC1` [Compound 311, (R)-3-(5-(3-((cyclobutylmethyl)amino)piperidin-1-yl)pyridin-2-yl)-N-(5-oxo-5H-thiazolo[3,2-a]pyrimidin-7-yl)oxetane-3-carboxamide], for which the IC50 was not above 50 nM in assay [1], not above 500 nM in the assay on Caov-3 cells and not above 500 nM in the assay with Kasumi-1 cells.

Consider `c1ncc(-c2cn(C3(c4ccc(N5CCC[C@@H](NCC6CCC6)C5)cn4)COC3)nn2)cc1OC1CCC1` [Compound 307, (R)-1-(6-(3-(4-(5-cyclobutoxypyridin-3-yl)-1H-1,2,3-triazol-1-yl)oxetan-3-yl)pyridin-3-yl)-N-(cyclobutylmethyl)piperidin-3-amine], for which the IC50 was not above 50 nM in assay [1], not above 500 nM in the assay on Caov-3 cells and not above 500 nM in the assay with Kasumi-1 cells.

As for `CC(n1cc(-c2cncc(N3CCCC3)c2)nn1)n1ccc(N2CCC[C@@H](NCC3CC3)C2)cc1=O` (single isomer, unassigned) [Compound 176], the IC50 is not above 50 nM in assay [1], not above 500 nM with Caov-3 cells and not above 500 nM in the assay with Kasumi-1 cells.

Regarding `CN(C)c1cncc(-c2cn(C3(c4ccc(N5CCC[C@@H](NCC6CCC6)C5)cn4)COC3)nn2)c1` [Compound 149, (R)-5-(1-(3-(5-(3-((cyclobutylmethyl)amino)piperidin-1-yl)pyridin-2-yl)oxetan-3-yl)-1H-1,2,3-triazol-4-yl)-N,N-dimethylpyridin-3-amine], the results for the IC50 (in assay [1]; with Caov-3 cells; in the assay on Kasumi-1 cells) were not above 50 nM, not above 500 nM and not above 500 nM, respectively.

Consider `COc1cnnc(-c2cn(C(C)n3ccc(N4CCC[C@@H](NCC5CCC5)C4)cc3=O)nn2)c1` (mixture of isomers) [Compound 093, 4-((R)-3-((cyclobutylmethyl)amino)piperidin-1-yl)-1-(1-(4-(5-methoxypyridazin-3-yl)-1H-1,2,3-triazol-1-yl)ethyl)pyridin-2(1H)-one], for which the IC50 is not above 50 nM in assay [1], 500 to 5000 nM with Caov-3 cells and 500 to 5000 nM in the assay on Kasumi-1 cells.

In the case of `CCC(NC(=O)c1cc(=O)n2ccccc2n1)c1ccc(N2CCC[C@@H](NCC3CCC3)C2)nn1` (single isomer, unassigned) [Compound 083], the values for the IC50 (in assay [1]; with Caov-3 cells; in the assay with Kasumi-1 cells) were not above 50 nM, 500 to 5000 nM and more than 5000 nM, respectively.

Take `CC(N[C@@H]1CCCN(c2ccc(C3(C(=O)Nc4cc(=O)n5ccccc5n4)COC3)nc2)C1)C1CCC1` (mixture of isomers) [Compound 336, 3-(5-((3R)-3-((1-cyclobutylethyl)amino)piperidin-1-yl)pyridin-2-yl)-N-(4-oxo-4H-pyrido[1,2-a]pyrimidin-2-yl)oxetane-3-carboxamide]: the IC50 in assay [1] was not above 50 nM; in the assay with Caov-3 cells, not above 500 nM; in the assay on Kasumi-1 cells, not above 500 nM.

On to `CC(n1cc(-c2cncc(N3CCC3)c2)nn1)n1ccc(N2CCC[C@@H](NCC3CCC3)C2)cc1=O` (single isomer, unassigned) [Compound 161], for which the IC50 in assay [1] is not above 50 nM; in the assay on Caov-3 cells, not above 500 nM; in the assay on Kasumi-1 cells it was not above 500 nM.
